Measured values published in patent publication US7642320B2, “Polymer additives with improved permanence and surface affinity” (Ciba Specialty Chemicals Corporation, priority 2001, dated 2010).

Test: Solubility in polar media (methanol, ambient temperature)
Assay type: physicochemical

Compound: CCC(C)(C)c1cc(-n2nc3ccccc3n2)c(O)c(C(C)(C)CC)c1 [Tinuvin ® 328]
- Solubility in methanol (wt %): 0.6 wt %
